Assay results reported in ChEMBL document CHEMBL1201862, “PubChem BioAssay data set” (2004).
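A five-concentration, 48-hour dose response in 96-well plates underlies each endpoint, interpolated linearly between surrounding concentrations. Here, GI50 denotes the concentration required for 50% inhibition of growth.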 Active and inactive are the calls of the source. Cut-off read from the data, not from the text of the source: active = GI50 up to about 1.1 µM and inactive = higher.

Legend:
Assay in all cases: DTP human tumour cell line panel, 48 h
[1] = test system: KM12
[2] = test system: OVCAR-8
[3] = test system: NCI/ADR-RES
[4] = test system: SNB-19
[5] = test system: CCRF-CEM
[6] = test system: SK-MEL-28
[7] = test system: BT-549
[8] = test system: SW-620
[9] = test system: SF-539
[10] = test system: MDA-MB-231
[11] = test system: HT-29
[12] = test system: A549
[13] = test system: NCI-H23
[14] = test system: SN12C
[15] = test system: SK-OV-3
[16] = test system: HOP-92
[17] = test system: IGROV-1
[18] = test system: MDA-N
[19] = test system: ACHN
[20] = test system: A498
[21] = test system: LOX IMVI
[22] = test system: COLO 205
[23] = test system: UACC-257
[24] = test system: MOLT-4
[25] = test system: MCF7
[26] = test system: 786-0
[27] = test system: HCT-15
[28] = test system: T47D
[29] = test system: HL-60
[30] = test system: M14
[31] = test system: SF-268
[32] = test system: K562
[33] = test system: SNB-75
[34] = test system: UACC-62
[35] = test system: Malme-3M
[36] = test system: NCI-H522
[37] = test system: U-251
[38] = test system: OVCAR-3
[39] = test system: Hs-578T
[40] = test system: SK-MEL-2
[41] = test system: HCT-116
[42] = test system: EKVX
[43] = test system: CAKI-1
[44] = test system: SF-295
[45] = test system: MDA-MB-435
[46] = test system: DU-145
[47] = test system: TK-10
[48] = test system: OVCAR-5
[49] = test system: RPMI-8226
[50] = test system: HCC 2998
[51] = test system: RXF 393
[52] = test system: PC-3
[53] = test system: HOP-62
[54] = test system: OVCAR-4
[55] = test system: NCI-H460
[56] = test system: UO-31
[57] = test system: SK-MEL-5
[58] = test system: SR
[59] = test system: NCI-H226

With `O=C(c1cccs1)N(C(=S)OCCOc1ccccc1)c1ccccc1` the GI50 [1] was 26 µM (inactive), the GI50 [2] was 25.5 µM (inactive) and the GI50 [3] was 20.9 µM (inactive). The GI50 [4] was 29.4 µM (inactive), the GI50 [5] was 27.6 µM (inactive) and the GI50 [6] was 24.8 µM (inactive). For the same compound, the GI50 [7] was 20.8 µM (inactive), the GI50 [8] was 25.5 µM (inactive) and the GI50 [9] was 34.3 µM (inactive). The GI50 [10] was 24.3 µM (inactive), the GI50 [11] was 34 µM (inactive) and the GI50 [12] was 28.1 µM (inactive). The GI50 [13] was 20.7 µM (inactive), the GI50 [14] was 22.1 µM (inactive) and the GI50 [15] was 30.3 µM (inactive). The GI50 [16] was 18.8 µM (inactive), the GI50 [17] was 25.4 µM (inactive) and the GI50 [18] was 17.2 µM (inactive). The GI50 [19] was 27.7 µM (inactive), the GI50 [20] was 25.5 µM (inactive) and the GI50 [21] was 17.1 µM (inactive). The GI50 [22] was 24.8 µM (inactive), the GI50 [23] was 29.4 µM (inactive) and the GI50 [24] was 27.4 µM (inactive). The GI50 [25] was 20.2 µM (inactive), the GI50 [26] was 25.2 µM (inactive) and the GI50 [27] was 27.4 µM. The GI50 [28] was 35.8 µM (inactive), the GI50 [29] was 27.6 µM (inactive) and the GI50 [30] was 17 µM (inactive). For the same compound, the GI50 [31] was 34.1 µM (inactive), the GI50 [32] was 36.1 µM (inactive) and the GI50 [33] was 24.3 µM (inactive). For the same compound, the GI50 [34] was 18.2 µM (inactive), the GI50 [35] was 31.3 µM (inactive) and the GI50 [36] was 23 µM (inactive). The GI50 [37] was 21.4 µM (inactive), the GI50 [38] was 21 µM (inactive) and the GI50 [39] was 58.6 µM (inactive). For the same compound, the GI50 [40] was 21.3 µM (inactive), the GI50 [41] was 19.4 µM (inactive) and the GI50 [42] was 29.5 µM (inactive). The GI50 [43] was 27.2 µM (inactive), the GI50 [44] was 26.5 µM (inactive) and the GI50 [45] was 17 µM (inactive). For the same compound, the GI50 [46] was 28.6 µM (inactive), the GI50 [47] was 41 µM (inactive) and the GI50 [48] was 28.4 µM (inactive). For the same compound, the GI50 [49] was 20.9 µM (inactive), the GI50 [50] was 24.7 µM (inactive) and the GI50 [51] was 23.6 µM (inactive). For the same compound, the GI50 [52] was 24.7 µM (inactive), the GI50 [53] was 28.2 µM (inactive) and the GI50 [54] was 29.8 µM (inactive). For the same compound, the GI50 [55] was 34.8 µM (inactive).
For `C[C@]1(S(=O)(=O)c2ccccc2)C[C@H]2N(Cc3ccccc3)[C@@H]1CCC21OCCO1`, the GI50 [1] was 58.2 µM (inactive), the GI50 [2] was > 100 µM (inactive) and the GI50 [3] was 46.9 µM (inactive). For the same compound, the GI50 [4] was > 100 µM (inactive), the GI50 [5] was 49.1 µM (inactive) and the GI50 [6] was > 100 µM (inactive). For the same compound, the GI50 [7] was > 100 µM (inactive), the GI50 [8] was 94.6 µM (inactive) and the GI50 [10] was > 100 µM (inactive). The GI50 [11] was 58.6 µM (inactive), the GI50 [12] was 86.1 µM (inactive) and the GI50 [13] was 60.5 µM (inactive). For the same compound, the GI50 [14] was > 100 µM (inactive), the GI50 [15] was > 100 µM (inactive) and the GI50 [16] was 88.1 µM (inactive). For the same compound, the GI50 [17] was > 100 µM (inactive), the GI50 [18] was > 100 µM (inactive) and the GI50 [56] was > 100 µM (inactive). The GI50 [19] was > 100 µM (inactive), the GI50 [21] was > 100 µM (inactive) and the GI50 [22] was 50.5 µM (inactive). For the same compound, the GI50 [23] was 22.3 µM (inactive), the GI50 [24] was 30.8 µM (inactive) and the GI50 [25] was 78.9 µM (inactive). The GI50 [26] was > 100 µM (inactive), the GI50 [27] was 63.1 µM and the GI50 [28] was 41.6 µM (inactive). For the same compound, the GI50 [29] was 13.6 µM (inactive), the GI50 [30] was > 100 µM (inactive) and the GI50 [31] was > 100 µM (inactive). For the same compound, the GI50 [32] was > 100 µM (inactive), the GI50 [33] was > 100 µM (inactive) and the GI50 [57] was 75.2 µM (inactive). For the same compound, the GI50 [34] was > 100 µM (inactive), the GI50 [35] was > 100 µM (inactive) and the GI50 [36] was 72.6 µM (inactive). The GI50 [37] was > 100 µM (inactive), the GI50 [38] was > 100 µM (inactive) and the GI50 [39] was > 100 µM (inactive). For the same compound, the GI50 [40] was > 100 µM (inactive), the GI50 [41] was > 100 µM (inactive) and the GI50 [42] was > 100 µM (inactive). The GI50 [43] was > 100 µM (inactive), the GI50 [44] was 90.4 µM (inactive) and the GI50 [45] was > 100 µM (inactive). For the same compound, the GI50 [46] was > 100 µM (inactive), the GI50 [48] was > 100 µM (inactive) and the GI50 [51] was > 100 µM (inactive). For the same compound, the GI50 [52] was 70.5 µM (inactive), the GI50 [53] was > 100 µM (inactive) and the GI50 [54] was 36.3 µM (inactive). For the same compound, the GI50 [55] was 67.9 µM (inactive).
`COc1cccc(C2c3cc4c(cc3OC(O)C2C)OCO4)c1OC` (stereo unspecified) was tested, and the GI50 [1] was 5.04 µM (inactive), the GI50 [2] was 3.06 µM (inactive) and the GI50 [4] was 11.2 µM (inactive). The GI50 [5] was 2.61 µM (inactive), the GI50 [6] was 13.3 µM (inactive) and the GI50 [7] was 10.1 µM (inactive). The GI50 [58] was 2.48 µM (inactive), the GI50 [8] was 3.64 µM (inactive) and the GI50 [9] was 11.1 µM (inactive). For the same compound, the GI50 [10] was 14.2 µM (inactive), the GI50 [11] was 3.66 µM (inactive) and the GI50 [12] was 4.02 µM (inactive). The GI50 [13] was 14.4 µM (inactive), the GI50 [14] was 4.78 µM (inactive) and the GI50 [16] was 1.66 µM (inactive). The GI50 [17] was 4.65 µM (inactive), the GI50 [18] was 8.67 µM (inactive) and the GI50 [19] was 3.18 µM (inactive). For the same compound, the GI50 [20] was 4.49 µM (inactive), the GI50 [21] was 4.05 µM (inactive) and the GI50 [22] was 6.11 µM (inactive). The GI50 [23] was 7.18 µM (inactive), the GI50 [24] was 2.16 µM (inactive) and the GI50 [25] was 5.28 µM (inactive). For the same compound, the GI50 [26] was 3.29 µM (inactive), the GI50 [27] was 2.1 µM and the GI50 [28] was 3.36 µM (inactive). For the same compound, the GI50 [29] was 1.87 µM (inactive), the GI50 [30] was 11.1 µM (inactive) and the GI50 [31] was 7.36 µM (inactive). For the same compound, the GI50 [32] was 2.7 µM (inactive), the GI50 [33] was 2.36 µM (inactive) and the GI50 [57] was 7.14 µM (inactive). The GI50 [34] was 13.9 µM (inactive), the GI50 [35] was 11 µM (inactive) and the GI50 [59] was 2.51 µM (inactive). For the same compound, the GI50 [37] was 3.27 µM (inactive), the GI50 [38] was 2.79 µM (inactive) and the GI50 [39] was 4.46 µM (inactive). For the same compound, the GI50 [40] was 5.2 µM (inactive), the GI50 [41] was 2.35 µM (inactive) and the GI50 [42] was 20.1 µM (inactive). For the same compound, the GI50 [43] was 2.14 µM (inactive), the GI50 [44] was 3.26 µM (inactive) and the GI50 [45] was 5.97 µM (inactive). For the same compound, the GI50 [46] was 2.98 µM (inactive), the GI50 [47] was 7.4 µM (inactive) and the GI50 [48] was 16.2 µM (inactive). The GI50 [49] was 2.13 µM (inactive), the GI50 [50] was 14.9 µM (inactive) and the GI50 [51] was 3.4 µM (inactive). For the same compound, the GI50 [52] was 4.49 µM (inactive), the GI50 [53] was 17.4 µM (inactive) and the GI50 [55] was 3.71 µM (inactive).
